Assays:
Assay type in all cases: binding
cytochrome P450 BM-3 [1] = biological target: cytochrome P450 BM-3 (Priestia megaterium, UniProt P14779, R48Q); experiment: spectral
cytochrome P450 BM-3 [2] = biological target: T1, cytochrome P450 BM-3 (Priestia megaterium, UniProt P14779); experiment: crystal structure at […] Å
T1 sequence (P14779 1-1049): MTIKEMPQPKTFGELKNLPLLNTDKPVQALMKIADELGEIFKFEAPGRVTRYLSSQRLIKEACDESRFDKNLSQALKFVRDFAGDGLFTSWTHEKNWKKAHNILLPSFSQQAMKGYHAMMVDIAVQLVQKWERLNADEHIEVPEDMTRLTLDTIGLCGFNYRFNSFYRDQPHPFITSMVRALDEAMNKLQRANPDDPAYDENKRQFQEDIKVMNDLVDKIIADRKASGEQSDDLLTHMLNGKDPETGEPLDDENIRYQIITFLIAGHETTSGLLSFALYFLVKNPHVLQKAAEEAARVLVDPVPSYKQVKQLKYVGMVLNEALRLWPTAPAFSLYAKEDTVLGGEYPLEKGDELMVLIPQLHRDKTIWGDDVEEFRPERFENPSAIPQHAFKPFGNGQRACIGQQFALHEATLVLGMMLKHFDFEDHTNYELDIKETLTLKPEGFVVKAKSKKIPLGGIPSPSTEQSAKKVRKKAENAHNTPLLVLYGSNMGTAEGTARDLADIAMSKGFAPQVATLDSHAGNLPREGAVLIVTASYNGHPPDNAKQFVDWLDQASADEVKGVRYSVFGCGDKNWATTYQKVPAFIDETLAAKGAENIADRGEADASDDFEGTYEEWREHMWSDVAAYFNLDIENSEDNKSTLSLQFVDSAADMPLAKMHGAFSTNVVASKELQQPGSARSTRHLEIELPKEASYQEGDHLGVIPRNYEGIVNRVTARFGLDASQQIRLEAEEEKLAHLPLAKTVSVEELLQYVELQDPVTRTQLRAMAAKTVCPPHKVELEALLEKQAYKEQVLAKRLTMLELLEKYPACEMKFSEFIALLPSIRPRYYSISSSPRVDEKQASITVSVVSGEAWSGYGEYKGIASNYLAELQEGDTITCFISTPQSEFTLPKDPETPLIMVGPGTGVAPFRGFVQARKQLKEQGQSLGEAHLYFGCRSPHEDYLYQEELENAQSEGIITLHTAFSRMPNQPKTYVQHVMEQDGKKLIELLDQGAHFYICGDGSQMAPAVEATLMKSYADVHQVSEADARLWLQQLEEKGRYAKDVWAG

cytochrome P450 BM-3 [3] = biological target: cytochrome P450 BM-3 (Priestia megaterium, UniProt P14779, R48K); experiment: spectral
cytochrome P450 BM-3 (Priestia megaterium, UniProt P14779, R48K), sequence (P14779 whole entry R48K): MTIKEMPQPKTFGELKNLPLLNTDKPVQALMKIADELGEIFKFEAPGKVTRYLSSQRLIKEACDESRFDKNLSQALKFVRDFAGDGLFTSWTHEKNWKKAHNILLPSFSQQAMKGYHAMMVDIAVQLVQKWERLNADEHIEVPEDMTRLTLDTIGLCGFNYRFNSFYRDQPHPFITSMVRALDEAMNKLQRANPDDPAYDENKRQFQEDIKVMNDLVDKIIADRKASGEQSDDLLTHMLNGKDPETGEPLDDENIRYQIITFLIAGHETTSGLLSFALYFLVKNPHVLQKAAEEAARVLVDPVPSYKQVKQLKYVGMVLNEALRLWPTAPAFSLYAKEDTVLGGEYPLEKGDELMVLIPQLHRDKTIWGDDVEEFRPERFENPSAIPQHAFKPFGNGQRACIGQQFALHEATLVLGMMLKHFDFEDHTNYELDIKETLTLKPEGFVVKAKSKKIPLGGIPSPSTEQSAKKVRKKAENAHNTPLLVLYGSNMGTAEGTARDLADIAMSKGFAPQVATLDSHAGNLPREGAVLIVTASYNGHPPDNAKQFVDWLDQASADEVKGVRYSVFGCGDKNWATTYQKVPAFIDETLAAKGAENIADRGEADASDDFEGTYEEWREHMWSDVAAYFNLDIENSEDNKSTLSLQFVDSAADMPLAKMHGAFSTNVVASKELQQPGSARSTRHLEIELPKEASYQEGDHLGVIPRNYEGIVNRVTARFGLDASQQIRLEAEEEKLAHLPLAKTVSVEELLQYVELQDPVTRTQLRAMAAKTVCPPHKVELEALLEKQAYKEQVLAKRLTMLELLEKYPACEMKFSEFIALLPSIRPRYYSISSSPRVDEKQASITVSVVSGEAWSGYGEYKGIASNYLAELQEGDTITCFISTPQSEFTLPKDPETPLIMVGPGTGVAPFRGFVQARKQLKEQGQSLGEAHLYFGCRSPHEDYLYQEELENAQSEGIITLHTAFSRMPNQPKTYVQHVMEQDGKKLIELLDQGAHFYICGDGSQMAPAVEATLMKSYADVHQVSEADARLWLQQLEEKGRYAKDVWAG

cytochrome P450 BM-3 (Priestia megaterium, UniProt P14779, R48Q), sequence (P14779 whole entry R48Q): as the sequence (P14779 whole entry R48K) above, with K48Q counted along it

## CCCCCCCCCCCCCCCC(=O)NCC(=O)O [NPG, N-palmitoylglycine]
Cytochrome P450 BM-3 [1]
  Kd: 7 ± 0.7 µM
Cytochrome P450 BM-3 [2]
  Kd: 0.37 ± 0.05 µM
Cytochrome P450 BM-3 [3]
  Kd: 1.2 ± 0.1 µM
